Usually pIC50 stands for the negative decadic logarithm of the IC50, by convention in mol/L. By pEC50 is commonly meant −log10 of the EC50, conventionally taken in molar units.

For 30 compounds, IC50 and EC50 results are on record in patent publication US20100075965A1, “PI3 KINASE INHIBITORS AND METHODS OF THEIR USE” (Novartis AG, priority 2006, published 2010).

The structures appear in SMILES notation. pEC50, pIC50: −log10 of the molar value. Read-outs that look alike come from different tables or passages of the source.

The target in one assay is PI3 K Alpha (Homo sapiens, UniProt P42336). In words: PI3 kinase phosphorylation assays (homogenous solution phase, one step solid phase, ATP depletion/KinaseGlo). Type of assay: biochemical. Background: Kinase-Glo measures the ATP left after a reaction by luminescence.
In another assay the test system is A2780 cells. In words: Viability assay in A2780 (Cell Titer Glo). In kind it is cell-based, human. To be noted: Homo sapiens, A2780 cells, read-out: A2780 Cell prolif. EC50. An outline of the steps:
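A2780 cells (1,000/well, DMEM + 10% FBS) were exposed to 3-fold serial dilutions of compound for 72 hrs at 37° C, 5% CO2. Viable cells were read by Cell Titer Glo luminescence, in duplicate, and EC50 values were derived from the curves.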
On the technique in general: Cellular ATP, detected with luciferase, serves as a proxy for viable cell number.

Setting [1] is: ATP depletion assay, read-out: PI3 K Alpha IC50.

Chain of PI3 K Alpha (P42336 whole entry): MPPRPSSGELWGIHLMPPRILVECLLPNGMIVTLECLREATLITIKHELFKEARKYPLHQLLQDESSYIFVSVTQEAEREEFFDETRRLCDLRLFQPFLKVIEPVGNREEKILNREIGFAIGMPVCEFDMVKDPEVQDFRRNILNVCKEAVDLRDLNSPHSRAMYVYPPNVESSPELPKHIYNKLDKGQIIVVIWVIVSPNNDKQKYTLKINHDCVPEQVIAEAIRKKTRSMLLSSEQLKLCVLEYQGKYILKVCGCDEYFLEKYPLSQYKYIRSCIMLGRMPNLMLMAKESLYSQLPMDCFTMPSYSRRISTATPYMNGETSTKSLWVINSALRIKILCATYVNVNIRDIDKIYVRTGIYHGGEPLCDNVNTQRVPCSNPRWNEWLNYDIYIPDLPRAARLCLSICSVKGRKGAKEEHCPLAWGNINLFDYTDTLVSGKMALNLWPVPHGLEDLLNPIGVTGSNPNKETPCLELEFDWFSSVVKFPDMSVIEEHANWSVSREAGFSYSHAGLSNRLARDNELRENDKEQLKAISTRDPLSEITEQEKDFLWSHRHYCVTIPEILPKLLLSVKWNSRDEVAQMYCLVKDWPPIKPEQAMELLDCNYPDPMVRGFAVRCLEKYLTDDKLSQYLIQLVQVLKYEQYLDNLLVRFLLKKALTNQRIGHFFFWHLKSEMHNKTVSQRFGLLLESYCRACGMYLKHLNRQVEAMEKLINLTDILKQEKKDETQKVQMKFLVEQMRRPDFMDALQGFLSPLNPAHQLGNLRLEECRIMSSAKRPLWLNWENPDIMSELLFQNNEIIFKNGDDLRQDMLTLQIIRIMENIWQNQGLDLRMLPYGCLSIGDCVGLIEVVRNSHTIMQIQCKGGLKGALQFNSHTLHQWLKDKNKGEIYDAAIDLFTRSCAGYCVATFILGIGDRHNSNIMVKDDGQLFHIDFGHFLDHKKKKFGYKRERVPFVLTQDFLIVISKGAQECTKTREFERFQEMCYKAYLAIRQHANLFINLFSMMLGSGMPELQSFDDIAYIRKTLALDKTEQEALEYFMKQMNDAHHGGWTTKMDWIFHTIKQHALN
Chain of PI3 K Alpha (P27986 whole entry partner): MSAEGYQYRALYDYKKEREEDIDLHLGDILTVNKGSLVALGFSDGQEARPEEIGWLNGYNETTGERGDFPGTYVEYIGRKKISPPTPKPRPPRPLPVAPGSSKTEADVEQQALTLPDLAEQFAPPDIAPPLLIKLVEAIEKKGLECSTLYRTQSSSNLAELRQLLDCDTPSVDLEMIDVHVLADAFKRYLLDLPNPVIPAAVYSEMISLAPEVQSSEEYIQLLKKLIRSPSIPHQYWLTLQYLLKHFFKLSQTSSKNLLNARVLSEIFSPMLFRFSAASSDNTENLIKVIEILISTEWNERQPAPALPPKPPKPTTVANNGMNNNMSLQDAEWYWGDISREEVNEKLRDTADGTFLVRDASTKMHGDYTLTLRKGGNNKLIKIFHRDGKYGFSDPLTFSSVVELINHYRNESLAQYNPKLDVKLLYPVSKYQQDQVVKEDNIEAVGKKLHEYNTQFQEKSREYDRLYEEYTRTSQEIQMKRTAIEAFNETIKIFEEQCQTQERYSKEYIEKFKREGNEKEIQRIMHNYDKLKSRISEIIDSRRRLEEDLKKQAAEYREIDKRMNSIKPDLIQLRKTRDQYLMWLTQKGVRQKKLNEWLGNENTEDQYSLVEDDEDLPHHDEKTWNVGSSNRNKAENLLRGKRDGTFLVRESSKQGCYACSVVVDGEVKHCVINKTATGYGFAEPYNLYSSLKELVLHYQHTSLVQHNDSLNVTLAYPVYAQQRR

Consider `CC(=O)Nc1cn2cc(-c3ccc(N)nc3C)ccc2n1` [Example 144, N-(6-(6-amino-2-methylpyridin-3-yl)imidazo[1,2-a]pyridin-2-yl)acetamide], for which the pIC50 on PI3 K Alpha (read-out: PI3K Alpha IC50) is > 6.00. Moreover, the pEC50 with A2780 cells is > 4.60.

Consider `Nc1ncc(-c2ccc3nc(NC(=O)c4cccc(Cl)c4)cn3c2)cc1C(F)(F)F` [Example 225, N-(6-(6-amino-5-(trifluoromethyl)pyridin-3-yl)imidazo[1,2-a]pyridin-2-yl)-3-chlorobenzamide], for which the pIC50 at PI3 K Alpha (read-out: PI3K Alpha IC50) was > 6.00. For the same compound, in the assay with A2780 cells, the pEC50 was > 5.00.

With `COC(=O)C1CCN(C(=O)Nc2cn3cc(-c4cnc(N)c(C(F)(F)F)c4)ccc3n2)C1` (stereo not drawn) [Example 257, methyl 1-(6-(6-amino-5-(trifluoromethyl)pyridin-3-yl)imidazo[1,2-a]pyridin-2-ylcarbamoyl) pyrrolidine-3-carboxylate], the pIC50 on PI3 K Alpha (read-out: PI3K Alpha IC50) was > 6.00. Further, in the assay on A2780 cells, the pEC50 was > 5.00.

As to `CC(=O)NC1CCN(C(=O)Nc2cn3cc(-c4cnc(N)c(C(F)(F)F)c4)ccc3n2)C1` (stereo not drawn) [Example 146, 3-acetamido-N-(6-(6-amino-5-(trifluoromethyl)pyridin-3-yl)imidazo[1,2-a]pyridin-2-yl)pyrrolidine-1-carboxamide], at PI3 K Alpha (read-out: PI3K Alpha IC50), the negative logarithm of the IC50 (pIC50) is > 6.00. The pEC50 with A2780 cells was > 4.60.

Consider `Nc1ccc(C(=O)Nc2nc3ccc(-c4cnc(N)c(C(F)(F)F)c4)cc3s2)cn1` [Example 2-34, 6-amino-N-(6-(6-amino-5-(trifluoromethyl)pyridin-3-yl)benzo[d]thiazol-2-yl)nicotinamide], for which the pIC50 on PI3 K Alpha (setting [1]) is > 6.00. Also, in the assay with A2780 cells (72 hrs), the pEC50 is > 6.00.

With `CC(C)(C)OC(=O)N1CCC[C@@H]1C(=O)Nc1cn2nc(-c3cnc(N)c(C(F)(F)F)c3)ccc2n1` [Example 179, (R)-tert-butyl amino-5-(trifluoromethyl) pyridin-3-yl)imidazo[1,2-b]pyridazin-2-ylcarbamoyl) pyrrolidine-1-carboxylate], the pIC50 at PI3 K Alpha (read-out: PI3K Alpha IC50) was > 6.00. Further, in the assay with A2780 cells, the pEC50 is > 4.60.

Regarding `Nc1ncc(-c2ccc3nc(NC(=O)C4CCN4)cn3c2)nc1OCC(F)(F)F` (stereo not drawn) [Example 229, N-(6-(5-amino-6-(2,2,2-trifluoroethoxy)pyrazin-2-yl)imidazo[1,2-a]pyridin-2-yl)azetidine-2-carboxamide], the pIC50 on PI3 K Alpha (read-out: PI3K Alpha IC50) was > 6.00. Moreover, the pEC50 in the assay on A2780 cells was > 5.00.

With `Nc1ncc(-c2ccc3nc(NC(=O)[C@@H]4CCCCN4Cc4ccccc4)cn3c2)cc1C(F)(F)F` [Example 233], the pIC50 at PI3 K Alpha (read-out: PI3K Alpha IC50) was > 6.00. For the same compound, the pEC50 in the assay with A2780 cells is > 5.00.

Take `CC(=O)Nc1cn2cc(-c3cnc(N)c(C(=O)NCCNS(C)(=O)=O)n3)ccc2n1` [Example 158, 6-(2-acetamido-imidazo[1,2-a]pyridin-6-yl)-3-amino-N-(2-(methylsulfon amido)ethyl) pyrazine-2-carboxamide]: on PI3 K Alpha (read-out: PI3K Alpha IC50), the pIC50 is > 6.00. The pEC50 in the assay with A2780 cells is > 4.60.

As to `CC(=O)N1CCC[C@H]1C(=O)Nc1cn2cc(-c3cnc(N)c(Cl)c3)ccc2n1` [Example 182, (S)-1-acetyl-N-(6-(6-amino-5-chloropyridin-3-yl)imidazo[1,2-a]pyridin-2-yl)pyrrolidine-2-carboxamide], the pIC50 at PI3 K Alpha (read-out: PI3K Alpha IC50) is > 6.00. The pEC50 in the assay with A2780 cells is > 4.60.

With `CC(=O)Nc1cn2cc(-c3cnc(N)c(C(=O)N4CCNCC4)c3)ccc2n1` [Example 160, N-(6-(6-amino-5-(piperazine-1-carbonyl)pyridin-3-yl)imidazo[1,2-a]pyridin-2-yl)acetamide], the pIC50 at PI3 K Alpha (read-out: PI3K Alpha IC50) is > 6.00. The pEC50 with A2780 cells is > 4.60.

Consider `CC(=O)Nc1cn2nc(-c3cnc(N)c(-c4cccc(C(F)(F)F)c4)c3)ccc2n1` [Example 186, N-(6-(6-amino-5-(3-(trifluoromethyl)phenyl)pyridin-3-yl)imidazo[1,2-b]pyridazin-2-yl)acetamide], for which the pIC50 at PI3 K Alpha (read-out: PI3K Alpha IC50) is > 6.00. Besides, the pEC50 in the assay with A2780 cells is > 5.00.

For `CC(=O)Nc1cn2cc(-c3cnc(N)c(-c4cccc(F)c4)c3)ccc2n1` [Example 134, N-(6-(6-amino-5-(3-fluorophenyl)pyridin-3-yl)imidazo[1,2-a]pyridin-2-yl)acetamide], the pIC50 at PI3 K Alpha (read-out: PI3K Alpha IC50) is > 6.00. In the assay on A2780 cells, the pEC50 is > 5.00.

For the compound `CC(=O)Nc1cn2cc(-c3cnc(N)c(C(F)(F)F)c3)c(F)cc2n1` [Example 171, N-(6-(6-amino-5-(trifluoromethyl)pyridin-3-yl)-7-fluoroimidazo [1,2-a]pyridin-2-yl)acetamide], the pIC50 on PI3 K Alpha (read-out: PI3K Alpha IC50) is > 6.00. For the same compound, in the assay on A2780 cells, the pEC50 was > 4.60.

With `Nc1ncc(-c2ccc3nc(NC(=O)[C@@H]4CCCN4)cn3n2)cc1C(F)(F)F` [Example 129, (S)-N-(6-(6-amino-5-(trifluoromethyl)pyridin-3-yl)imidazo[1,2-b]pyridazin-2-yl)pyrrolidine-2-carboxamide], the pIC50 on PI3 K Alpha (read-out: PI3K Alpha IC50) is > 6.00. The pEC50 in the assay with A2780 cells was > 5.00.

`CC(=O)Nc1cn2nc(-c3cnc(N)c(C(=O)NCCN)c3)ccc2n1` [Example 139, 5-(2-acetamido-imidazo[1,2-b]pyridazin-6-yl)-2-amino-N-(2-aminoethyl) nicotinamide]: at PI3 K Alpha (read-out: PI3K Alpha IC50), the pIC50 was > 6.00. The pEC50 with A2780 cells is > 4.60.

On to `COc1cc(-c2ccc3nc(NC(C)=O)cn3c2C)cnc1N` [Example 167, N-(6-(6-amino-5-methoxypyridin-3-yl)-5-methylimidazo[1,2-a]pyridin-2-yl)acetamide], for which the pIC50 at PI3 K Alpha (read-out: PI3K Alpha IC50) is > 6.00. The pEC50 with A2780 cells is > 4.60.

Turning to `Nc1ncc(-c2ccc3nc(NC(=O)[C@@H]4CCCN4)cn3c2)cc1C(F)(F)F` [Example 38, (S)-N-(6-(6-amino-5-(trifluoromethyl)pyridin-3-yl)imidazo[1,2-a]pyridin-2-yl)pyrrolidine-2-carboxamide], the negative logarithm of the IC50 (pIC50) at PI3 K Alpha (read-out: PI3K Alpha IC50) was > 4.60. Also, the pEC50 in the assay with A2780 cells is > 5.00.

In the case of `Nc1ncc(-c2ccc3nc(NC(=O)N4CCCC4c4ccccn4)cn3c2)cc1C(F)(F)F` (stereo not drawn) [Example 175, N-(6-(6-amino-5-(trifluoromethyl)pyridin-3-yl)imidazo[1,2-a]pyridin-2-yl)-2-(pyridin-2-yl)pyrrolidine-1-carboxamide], the pIC50 at PI3 K Alpha (read-out: PI3K Alpha IC50) is > 6.00. In the assay on A2780 cells, the pEC50 is > 4.60.

For `CC(=O)Nc1cn2cc(-c3cnc(N)c(Oc4ccc(N5CCN(C(C)=O)CC5)cc4)n3)ccc2n1` [Example 222, N-(6-(6-(4-(4-acetylpiperazin-1-yl)phenoxy)-5-aminopyrazin-2-yl)imidazo[1,2-a]pyridin-2-yl)acetamide], at PI3 K Alpha (read-out: PI3K Alpha IC50), the pIC50 was > 6.00. The pEC50 with A2780 cells is > 5.00.

Take `C=Cc1c(NC(C)=O)nc2ccc(-c3cnc(N)c(C(F)(F)F)c3)cn12` [Example 168, N-(6-(6-amino-5-(trifluoromethyl)pyridin-3-yl)-3-vinylimidazo[1,2-a]pyridin-2-yl)acetamide]: at PI3 K Alpha (read-out: PI3K Alpha IC50), the pIC50 is > 6.00. Further, the pEC50 in the assay with A2780 cells is > 4.60.

For `COCCOc1nc(-c2ccc3nc(NC(=O)CN4CCCCC4)cn3c2)cnc1N` [Example 202, N-(6-(5-amino-6-(2-methoxyethoxy)pyrazin-2-yl)imidazo[1,2-a]pyridin-2-yl)-2-(piperidin-1-yl)acetamide], the pIC50 at PI3 K Alpha (read-out: PI3K Alpha IC50) was > 6.00. For the same compound, the pEC50 with A2780 cells is > 5.00.

`CC(=O)Nc1nc2ccc(-c3cnc(N)nc3C(F)(F)F)cc2s1` [Example 2-13, N-[6-(2-Amino-4-trifluoromethyl-pyrimidin-5-yl)-benzothiazol-2-yl]-acetamide]: the pIC50 on PI3 K Alpha (setting [1]) was > 6.00. Further, in the assay on A2780 cells (72 hrs), the pEC50 is > 4.60.

Regarding `CC(C)(C)OC(=O)N1CC(C(=O)Nc2cn3nc(-c4cnc(N)c(C(F)(F)F)c4)ccc3n2)C1` [Example 197, tert-butyl 3-(6-(6-amino-5-(trifluoromethyl)pyridin-3-yl)imidazo[1,2-b]pyridazin-2-ylcarbamoyl) azetidine-1-carboxylate], at PI3 K Alpha (read-out: PI3K Alpha IC50), the pIC50 is > 6.00. The pEC50 in the assay on A2780 cells was > 5.00.

For `COCCOc1nc(-c2ccc3nc(NC(=O)C4CCN4)cn3c2)cnc1N` (stereo not drawn) [Example 153, N-(6-(5-amino-6-(2-methoxyethoxy)pyrazin-2-yl)imidazo[1,2-a]pyridin-2-yl)azetidine-2-carboxamide], the pIC50 at PI3 K Alpha (read-out: PI3K Alpha IC50) was > 6.00. Also, the pEC50 in the assay on A2780 cells was > 4.60.

Turning to `NC(=O)N1CC[C@H]1C(=O)Nc1cn2cc(-c3cnc(N)c(C(F)(F)F)c3)ccc2n1` [Example 148, (S)-N2-(6-(6-amino-5-(trifluoromethyl)pyridin-3-yl)imidazo[1,2-a]pyridin-2-yl)azetidine-1,2-dicarboxamide], the pIC50 at PI3 K Alpha (read-out: PI3K Alpha IC50) is > 6.00. Besides, the pEC50 in the assay on A2780 cells is > 4.60.

`CCC(=O)Nc1cn2cc(-c3cnc(N)c(OC)n3)ccc2n1` [Example 185, N-(6-(5-amino-6-methoxypyrazin-2-yl)imidazo[1,2-a]pyridin-2-yl)propionamide]: the pIC50 on PI3 K Alpha (read-out: PI3K Alpha IC50) is > 6.00. For the same compound, the pEC50 with A2780 cells is > 5.00.

`Nc1ncc(-c2ccc3nc(NC(=O)COCc4ccccc4)cn3n2)cc1C(F)(F)F` [Example 217, N-(6-(6-amino-5-(trifluoromethyl)pyridin-3-yl)imidazo[1,2-b]pyridazin-2-yl)-2-(benzyloxy) acetamide]: at PI3 K Alpha (read-out: PI3K Alpha IC50), the pIC50 is > 6.00. Moreover, the pEC50 with A2780 cells is > 5.00.

Turning to `Nc1ncc(-c2ccc3nc(NC(=O)C(F)(F)F)cn3c2O)cc1C(F)(F)F` [Example 41], the pIC50 on PI3 K Alpha (read-out: PI3K Alpha IC50) was > 5.00. In addition, the pEC50 in the assay on A2780 cells is > 4.60.

For `CCCc1c(NC(C)=O)nc2ccc(-c3cnc(N)c(C(F)(F)F)c3)cn12` [Example 31, N-[6-(6-Amino-5-trifluoromethyl-pyridin-3-yl)-3-propyl-imidazo[1,2-a]pyridin-2-yl]-acetamide], on PI3 K Alpha (read-out: PI3K Alpha IC50), the pIC50 was > 6.00. For the same compound, the pEC50 in the assay with A2780 cells was > 4.60.
